Reference: patent publication US5883294A, “Selective thyroid hormone analogs” (The Regeants of the University of California, priority 1997, dated 1999)

Biological target: T1, TR α1 (Rattus norvegicus, UniProt P63059)
T1 construct: made in house; host or cells: E. coli
Assay: Receptor Binding Assays of TR Ligands ([125I]T3 displacement), TR α1

T1 sequence (P63059 other isoform, or with tags, fused parts or gaps): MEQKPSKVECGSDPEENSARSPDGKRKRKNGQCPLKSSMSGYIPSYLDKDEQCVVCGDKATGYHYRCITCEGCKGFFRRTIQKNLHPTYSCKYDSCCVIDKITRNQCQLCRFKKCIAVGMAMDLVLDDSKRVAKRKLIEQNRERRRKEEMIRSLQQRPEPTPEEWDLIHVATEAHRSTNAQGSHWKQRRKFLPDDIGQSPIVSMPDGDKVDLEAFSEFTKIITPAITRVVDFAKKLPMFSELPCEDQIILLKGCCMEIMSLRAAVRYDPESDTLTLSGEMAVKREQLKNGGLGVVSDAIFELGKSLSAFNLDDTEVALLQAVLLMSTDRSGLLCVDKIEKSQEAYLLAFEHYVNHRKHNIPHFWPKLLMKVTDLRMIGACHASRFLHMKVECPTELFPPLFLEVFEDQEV

In the case of Cc1cc(OCC(=O)O)cc(C)c1Cc1ccc(O)c(C(C)C)c1 [GC1, [3,5-dimethyl-4-(4'-hydroxy-3'-isopropylbenzyl)-phenoxy] acetic acid], the IC50 is reported as 20 nM.
